Measurements from patent US10877036B2, “Biosensor based on Gβγ-interacting proteins to monitor G-protein activation” (priority 2014, dated 2020).
Where two headings read alike, the source gives them in different places.

Key:
Format in all cases: cell-based
[1] = molecular target: T1, thromboxane A2 receptor (TPαR) (Homo sapiens, UniProt P21731); experiment: βγIP-based BRET biosensor (GRK2-GFP/Rluc-Gγ5/Gβ1 plus indicated Gα), agonist activation of TPαR in HEK293 cells; settings: read-out: potency of G-protein activation (dose-response curve)
T1 construct: host or cells: HEK293
T1 sequence (P21731 1-343): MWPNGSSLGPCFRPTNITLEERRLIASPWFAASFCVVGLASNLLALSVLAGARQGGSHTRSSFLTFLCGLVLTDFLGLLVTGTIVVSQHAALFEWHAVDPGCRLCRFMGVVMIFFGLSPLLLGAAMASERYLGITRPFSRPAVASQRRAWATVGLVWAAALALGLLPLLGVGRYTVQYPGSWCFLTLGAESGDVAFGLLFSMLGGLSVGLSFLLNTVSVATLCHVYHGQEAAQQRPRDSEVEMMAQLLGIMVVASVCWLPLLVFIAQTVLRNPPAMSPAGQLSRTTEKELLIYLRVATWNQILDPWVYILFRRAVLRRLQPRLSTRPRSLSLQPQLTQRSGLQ
Experimental: Cell culture and transfections. Human embryonic kidney 293 (HEK293) cells were maintained in Dulbecco's Modified Eagle's Medium (DMEM) supplemented with 10% fetal bovine serum, 100 unit/ml penicillin/streptomycin at 37° C. in a humidified atmosphere with 5% CO2. […]
BRET assays in living cells. […] BRET values were then collected using a Mithras™ LB940 Multimode Microplate Reader or a TRISTAR® LB942 Multimode Microplate Reader, equipped with the following filters: 400 nm±70 nm (energy donor) and 515 nm±20 nm (energy acceptor). BRET values were determined by calculating the ratio of the light emitted by GFP (515 nm) over the light emitted by the Rluc (400 nm). To determine the % of activation (Stim as % of basal), BRET values obtained for the agonist treated cells where expressed as a percentage of the BRET values obtained with the corresponding cells treated with vehicle.
Kinetics experiments. BRET assays were performed as described previously, except that BRET readings were collected at regular intervals, 5 min after coelenterazine addition, while ligands and vehicle were injected to the cells after 30 sec of BRET measurements.

TPαR [2] = molecular target: T2, TPαR (Homo sapiens, UniProt P21731); experiment: Rluc protein complementation assay (GRK2-Rluc F1/Rluc F2-Gγ5/Gβ1/Gα11), TPαR in HEK293 cells; settings: Rluc-PCA, FIG. 9B, read-out: EC50 of G11 protein activation (luminescence)
T2 construct: host or cells: HEK293
T2 sequence (P21731 1-343): T1 sequence (P21731 1-343)
Experimental: Cell culture and transfections. Human embryonic kidney 293 (HEK293) cells were maintained in Dulbecco's Modified Eagle's Medium (DMEM) supplemented with 10% fetal bovine serum, 100 unit/ml penicillin/streptomycin at 37° C. in a humidified atmosphere with 5% CO2. Two days before the experiments, HEK293 cells were transfected with the indicated plasmids using poly-ethylenimine 25-kDa linear (PEI) as a transfecting agent (at a ratio of 3 to 1, PEI/DNA) (Hamdan, Rochdi et al. 2007), and then directly seeded in 96-well plates pre-treated with poly-L-ornithine hydrobromide or Poly-D-Lysine, at a density of 35,000 cells per well (for BRET and PCA assays in living cells), or 6-well plates at a density of 1,000,000 cells per well (for BRET assays on membrane preparations).
Protein complementation assays using RlucII fragments. Cells were washed twice with PBS, followed by Tyrode buffer addition. The cells were then pre-treated with the Rluc substrate, coelenterazine 400a, at a final concentration of 2.5 μM for 30 min at 37° C. The different ligands or vehicle were added for an additional 10 min. Luminescence values were then collected using a Mithras™ LB940 Multimode Microplate Reader, without any filters.

TPαR [3] = molecular target: T2, TPαR; experiment: Polycistronic vector biosensor (GRK2-GFP, Rluc-Gγ5, Gβ1) co-transfected with TPαR and Gα11; settings: FIG. 11C
Source text: Expression vectors: Biosensor constructs. Rluc-Gγ5 and GFP-Gγ: Plasmid encoding the fusion proteins Rluc-Gy1 to Gγ13 and GFP1O-Gγ5 were was obtained by PCR amplification of the Gγ coding sequences which were then fused in frame at its N-terminus to the humanized Renilla luciferase II (hRlucII) sequence (a variant of the hRluc previously reported (Leduc, Breton et al. 2009), SEQ ID NO:39) into pcDNA3.1 vector (linker sequence: GSAGT, SEQ ID NO: 33), or to the GFP10 (a variant form of the green fluorescent protein (GFP) previously reported (Mercier, Salahpour et al. 2002, SEQ ID NO:38). GRK2-GFP and GRK3-GFP: GRK2-GFP, GRK3-GFP, GRK2 Cterm (SEQ ID NO:50)-GFP, GRK3 Cterm (SEQ ID NO:51)-GFP were generated by PCR amplification of GRK2 and GRK3, which were then fused at their C-terminus to the GFP10 into pcDNA3.1 Zeo(+) vector, generating a linker of 11 amino acid residues between the GRK and the GFP10 protein (linker sequence: GSAGTGKLPAT, SEQ ID NO: 34). GFP-GRK2 and GFP-GRK3: […], GFP-GRK2 Cterm (SEQ ID NO:50), GFP-GRK3 Cterm (SEQ ID NO:51) were generated by PCR amplification of GRK2 and GRK3, which were then fused at their N-terminus to the GFP10 (SEQ ID NO:38) into pcDNA3.1 Zeo (+) vector, generating a linker of 7 amino acid residues between the GRK and the GFP10 protein (linker sequence: GSAGTGG, SEQ ID NO:52). […]

## CCCCC[C@H](O)/C=C/[C@@H]1[C@@H](C/C=C\CCCC(=O)O)[C@H]2CO[C@@H]1C2 [U-46619]
[1]; G-protein printed as Gβ, FIG. 3C
  EC50: 0.5 nM
[1]; Gα15/16, FIG. 3C
  EC50: 6.6 nM
TPαR [2]
  EC50: 8.4 nM
TPαR [3]
  EC50: 4.3 nM
